# In US20090182057A1, “DEUTERATED AMINOGLYCIDAL COMPOUNDS” (AUSPEX PHARMACEUTICALS, INC., priority 2006, published 2009):
# Conditions: topical or ocular, 5 microgram per mL
# Protocol: In Vitro Liver Microsomal Stability Assay
# Liver microsomal stability assays are conducted at 1 mg per mL liver microsome protein with an NADPH-generating system in 2% NaHCO3 (2.2 mM NADPH, 25.6 mM glucose 6-phosphate, 6 units per mL glucose 6-phosphate dehydrogenase and 3.3 mM MgCl2). Test compounds are prepared as solutions in 20% acetonitrile-water, and added to the assay mixture (final assay concentration 5 microgram per mL) and incubated at 37° C. Final concentration of acetonitrile in the assay should be <1%. Aliquots (50 μL) are taken out at times 0, 15, 30, 45, and 60 min, and diluted with ice cold acetonitrile (200 μL) to stop the reactions. Samples are centrifuged at 12,000 RPM for 10 min to precipitate proteins. Supernatants are transferred to microcentrifuge tubes and stored for LC/MS/MS analysis of the degradation half-life of the test compounds.
row,SMILES,increase in the degradation half-life as compared to non-isotopically enriched metoprolol
1,"[2H]C([2H])([2H])OCCc1ccc(OCC(O)CNC(C)C)cc1 (stereo not shown) [d3-metoprolol, d3-1-Isopropylamino-3-[4-(2-methoxy-ethyl)-phenoxy]-propan-2-ol]",10-30%
2,"[2H]C([2H])([2H])OC([2H])([2H])Cc1ccc(OC([2H])([2H])C([2H])(O)C([2H])([2H])NC(C([2H])([2H])[2H])C([2H])([2H])[2H])cc1 (stereo not shown) [d16-metoprolol, d16-1-Isopropylamino-3-[4-(2-methoxy-ethyl)-phenoxy]-propan-2-ol]",10-30%
3,"[2H]C([2H])(Cc1ccc(OCC(O)CNC(C)C)cc1)OC (stereo not shown) [d2-metoprolol, d2-1-Isopropylamino-3-[4-(2-methoxy-ethyl)-phenoxy]-propan-2-ol]",10-30%
4,"[2H]C([2H])([2H])OC([2H])([2H])Cc1ccc(OCC(O)CNC(C)C)cc1 (stereo not shown) [d5-metoprolol, d5-1-Isopropylamino-3-[4-(2-methoxy-ethyl)-phenoxy]-propan-2-ol]",10-30%
